# Assay results as given in the NIST ThermoML archive (doi:10.1021/acs.jced.5b00919).
# ± gives the expanded uncertainty stated by the source.
# Test: activity coefficient (dimensionless); of the first substance listed, at infinite dilution; xn = mol fraction of the nth substance listed
# Conditions: 101 kPa, Liquid, Chromatography, x1 = 0
Structure (SMILES),activity coefficient (338.15 K),activity coefficient (348.15 K),activity coefficient (358.15 K),activity coefficient (368.15 K)
CCCO [propan-1-ol] + CCCC[N+](C)(CCCC)CCCC.COS(=O)(=O)[O-],0.29 ± 0.03,0.24 ± 0.03,0.21 ± 0.03,0.18 ± 0.03
CCO [ethanol] + CCCC[N+](C)(CCCC)CCCC.COS(=O)(=O)[O-],0.24 ± 0.03,0.2 ± 0.03,0.19 ± 0.03,0.17 ± 0.03
CO [methanol] + CCCC[N+](C)(CCCC)CCCC.COS(=O)(=O)[O-],0.16 ± 0.03,0.15 ± 0.03,0.14 ± 0.03,0.13 ± 0.03
CCC(C)O (centres undefined) [butan-2-ol] + CCCC[N+](C)(CCCC)CCCC.COS(=O)(=O)[O-],0.38 ± 0.03,0.29 ± 0.03,0.24 ± 0.03,0.2 ± 0.03
CCCCO [butan-1-ol] + CCCC[N+](C)(CCCC)CCCC.COS(=O)(=O)[O-],0.4 ± 0.03,0.31 ± 0.03,0.25 ± 0.03,0.22 ± 0.03
CC(C)(C)O [2-methylpropan-2-ol] + CCCC[N+](C)(CCCC)CCCC.COS(=O)(=O)[O-],0.32 ± 0.03,0.28 ± 0.03,0.25 ± 0.03,0.23 ± 0.03
